≈ marks a conversion by molar mass, not a printed value.
Experiments:
A. fumigatus = A. fumigatus MIC at 100% growth inhibition (CLSI M38-A2); format: cell-based, Aspergillus fumigatus; settings: 100% growth inhibition, range tested 8-0.0078 μg/mL, values given as ranges; for MIC: Aspergillus fumigatus, read-out: Aspergillus fumigatus MIC
Method: A. fumigatus MICs were determined at 100% growth inhibition following CLSI guidelines at a concentration range of 8-0.0078 μg/mL (CLSI M38-A2).

C. albicans (ATCC 90028) = assay: Minimum inhibitory concentration, in vitro broth microdilution assay (CLSI M27-A2); format: cell-based, Candida albicans; settings: ATCC 90028, about 50% growth reduction, 2 days at 36° C., range tested 8-0.0078 μg/mL, values given as ranges; for MIC: Candida albicans, ATCC90028, 48 h, read-out: Candida albicans MIC
Method: The antifungal potency of the test compounds was measured using the in vitro broth microdilution assay under assay conditions described by the Clinical and Laboratory Standards Institute (CLSI M27-A2). The test compounds were dissolved in 100% DMSO, suspended completely by sonication or vortexing, diluted by 2-fold serial titrations in the same vehicle, for a total of 11 test concentrations. A 4 μL aliquot of each dilution was added to 196 μL of RPMI-1640+MOPS medium seeded with the C. albicans (ATCC 90028) suspension in wells of a 96 well plate (fungal cell count: 1×10^3 to 1×10^4 colony forming units per mL). The final volume was 200 μL in each well and the final DMSO concentration was 2 percent. The inoculated plates were incubated for 2 days at 36° C. Following incubation, the test plates were visually examined and wells were scored for growth to define the minimum inhibitory concentration. […] Each test substance was evaluated in duplicate. Vehicle-control and an active reference agent (e.g., posaconazole) were used as blank and positive controls, respectively.

Structure (SMILES): OC(CC(F)(F)F)c1ccc(N2CCN(c3ccc(-c4ccc(C(F)(F)[C@](O)(Cn5cnnn5)c5ccc(F)cc5F)nc4)cc3)CC2)cn1 (single isomer, unassigned) [Example 13-Fr-I]
- Aspergillus fumigatus MIC (A. fumigatus): 0.062 to 0.25 µg/mL
- Candida albicans MIC (C. albicans (ATCC 90028)): ≤0.0078 to 0.010 µg/mL

Structure (SMILES): N#Cc1ccc(C(=O)N2CCN(c3ccc(-c4ccc(C(F)(F)[C@](O)(Cn5cnnn5)c5ccc(F)cc5F)nc4)cc3)CC2)cc1 [Example 23, (R)-4-(4-(4-(6-(2-(2,4-difluorophenyl)-1,1-difluoro-2-hydroxy-3-(1H-tetrazol-1-yl)propyl)pyridin-3-yl)phenyl)piperazine-1-carbonyl) benzonitrile]
- MIC (A. fumigatus): > 8 µg/mL
- MIC (C. albicans (ATCC 90028)): 0.0078 to 0.01 µg/mL (≈ 0.0121 to 0.0156 µM)

Structure (SMILES): CC[C@@H]([C@H](C)O)n1cc(-c2ccc(N3CCN(c4ccc(-c5ccc(C(F)(F)[C@](O)(Cn6cnnn6)c6ccc(F)cc6F)nc5)cc4)CC3)cc2)nn1 [Example 95, (2S,3S)-3-(4-(4-(4-(4-(6-((R)-2-(2,4-difluorophenyl)-1,1-difluoro-2-hydroxy-3-(1H-tetrazol-1-yl)propyl)pyridin-3-yl)phenyl)piperazin-1-yl)phenyl)-1H-1,2,3-triazol-1-yl) pentan-2-ol]
- MIC (A. fumigatus): 0.25 to 1 µg/mL (≈ 0.337 to 1.35 µM)
- MIC (C. albicans (ATCC 90028)): 0.0078 to 0.01 µg/mL (≈ 0.0105 to 0.0135 µM)

Structure (SMILES): OC(c1ccc(N2CCN(c3ccc(-c4ccc(C(F)(F)[C@](O)(Cn5cnnn5)c5ccc(F)cc5F)nc4)cc3)CC2)nc1)C(F)(F)F (stereo partly drawn) [Example 34, (2R)-2-(2,4-difluorophenyl)-1,1-difluoro-3-(1H-tetrazol-1-yl)-1-(5-(4-(4-(5-(2,2,2-trifluoro-1-hydroxyethyl)pyridin-2-yl)piperazin-1-yl)phenyl)pyridin-2-yl) propan-2-ol]
- MIC (A. fumigatus): 0.25 to 1 µg/mL (≈ 0.363 to 1.45 µM)
- MIC (C. albicans (ATCC 90028)): 0.0078 to 0.01 µg/mL (≈ 0.0113 to 0.0145 µM)

Structure (SMILES): CCC(C(C)O)n1ccc(N2CCN(c3ccc(-c4ccc(C(F)(F)[C@](O)(Cn5cnnn5)c5ccc(F)cc5F)nc4)cc3)CC2)cc1=O (stereo partly drawn) [Example 37, 4-(4-(4-(6-((R)-2-(2,4-difluorophenyl)-1,1-difluoro-2-hydroxy-3-(1H-tetrazol-1-yl)propyl)pyridin-3-yl)phenyl)piperazin-1-yl)-1-(2-hydroxypentan-3-yl) pyridin-2(1H)-one]
- MIC (A. fumigatus): > 8 µg/mL
- MIC (C. albicans (ATCC 90028)): 0.01 to 0.1 µg/mL (≈ 0.0144 to 0.144 µM)

Structure (SMILES): N#Cc1ccc(N2CCN(Cc3ccc(-c4ccc(C(F)(F)[C@](O)(Cn5cnnn5)c5ccc(F)cc5F)nc4)cc3)CC2)cc1 [Example 18, (R)-4-(4-(4-(6-(2-(2,4-difluorophenyl)-1,1-difluoro-2-hydroxy-3-(1H-tetrazol-1-yl)propyl)pyridin-3-yl)benzyl)piperazin-1-yl) benzonitrile]
- MIC (A. fumigatus): > 8 µg/mL
- MIC (C. albicans (ATCC 90028)): 0.0078 to 0.01 µg/mL (≈ 0.0124 to 0.0159 µM)

Structure (SMILES): CCC(O)c1ccc(N2CCN(c3ccc(-c4ccc(C(F)(F)[C@](O)(Cn5cnnn5)c5ccc(F)cc5F)nc4)cc3)CC2)cc1 (stereo partly shown) [Example 39]
- MIC (A. fumigatus): 0.25 to 1 µg/mL (≈ 0.386 to 1.54 µM)
- MIC (C. albicans (ATCC 90028)): 0.01 to 0.1 µg/mL (≈ 0.0154 to 0.154 µM)

Structure (SMILES): OC(c1ccc(N2CCN(c3ccc(-c4ccc(C(F)(F)[C@](O)(Cn5cnnn5)c5ccc(F)cc5F)nc4)cc3)CC2)cn1)C(F)(F)F (stereo partly drawn) [Example 6, (2R)-2-(2,4-difluorophenyl)-1,1-difluoro-3-(1H-tetrazol-1-yl)-1-(5-(4-(4-(6-(2,2,2-trifluoro-1-hydroxyethyl)pyridin-3-yl)piperazin-1-yl)phenyl)pyridin-2-yl) propan-2-ol]
- Aspergillus fumigatus MIC (A. fumigatus): 0.25 to 1.0 µg/mL
- Candida albicans MIC (C. albicans (ATCC 90028)): ≤0.0078 to 0.010 µg/mL

Structure (SMILES): N#Cc1ccc(N2CCN(c3ccc(-c4ccc(C(F)(F)[C@](O)(Cn5cnnn5)c5ccc(F)cc5F)nc4)cc3F)CC2)cc1 [Example 10, (R)-4-(4-(4-(6-(2-(2,4-difluorophenyl)-1,1-difluoro-2-hydroxy-3-(1H-tetrazol-1-yl)propyl)pyridin-3-yl)-2-fluorophenyl)piperazin-1-yl) benzonitrile]
- MIC (A. fumigatus): > 8 µg/mL
- MIC (C. albicans (ATCC 90028)): 0.0078 to 0.01 µg/mL (≈ 0.0123 to 0.0158 µM)

Structure (SMILES): CC[C@H](NC(=O)Nc1ccc(N2CCN(c3ccc(-c4ccc(C(F)(F)[C@](O)(Cn5cnnn5)c5ccc(F)cc5F)nc4)cc3)CC2)cc1)[C@H](C)O [Example 21, 1-(4-(4-(4-(6-((R)-2-(2,4-difluorophenyl)-1,1-difluoro-2-hydroxy-3-(1H-tetrazol-1-yl)propyl)pyridin-3-yl)phenyl)piperazin-1-yl)phenyl)-3-((2S,3S)-2-hydroxypentan-3-yl) urea]
- MIC (A. fumigatus): 0.25 to 1 µg/mL (≈ 0.341 to 1.36 µM)
- MIC (C. albicans (ATCC 90028)): 0.01 to 0.1 µg/mL (≈ 0.0136 to 0.136 µM)

Structure (SMILES): CC[C@@H]([C@H](C)O)n1ncn(-c2ccc(N3CCN(c4ccc(-c5ccc(C(F)(F)[C@](O)(Cn6cnnn6)c6ccc(F)cc6)nc5)cc4)CC3)cn2)c1=O [109(−), (−)-4-(5-(4-(4-(6-((R)-1,1-difluoro-2-(4-fluorophenyl)-2-hydroxy-3-(1H-tetrazol-1-yl)propyl)pyridin-3-yl)phenyl)piperazin-1-yl)pyridin-2-yl)-2-((2S,3S)-2-hydroxypentan-3-yl)-2,4-dihydro-3H-1,2,4-triazol-3-one]
- Aspergillus fumigatus MIC (A. fumigatus): 1.0 to 4.0 µg/mL
- Candida albicans MIC (C. albicans (ATCC 90028)): 0.10 to 1.0 µg/mL

Structure (SMILES): CC(C)c1nc2cc(N3CCN(c4ccc(-c5ccc(C(F)(F)[C@](O)(Cn6cnnn6)c6ccc(F)cc6F)nc5)cc4)CC3)ccc2[nH]1 [Example 69, (R)-2-(2,4-difluorophenyl)-1,1-difluoro-1-(5-(4-(4-(2-isopropyl-1H-benzo [d]imidazol-5-yl)piperazin-1-yl)phenyl)pyridin-2-yl)-3-(1H-tetrazol-1-yl) propan-2-ol]
- MIC (A. fumigatus): > 8 µg/mL
- MIC (C. albicans (ATCC 90028)): 0.01 to 0.1 µg/mL (≈ 0.0149 to 0.149 µM)

Structure (SMILES): CC(C)CC(O)c1ccc(N2CCN(c3ccc(-c4ccc(C(F)(F)[C@](O)(Cn5cnnn5)c5ccc(F)cc5F)nc4)cc3)CC2)cn1 (stereo partly drawn) [Example 49, 1-(5-(4-(4-(6-((R)-2-(2,4-difluorophenyl)-1,1-difluoro-2-hydroxy-3-(1H-tetrazol-1-yl)propyl)pyridin-3-yl)phenyl)piperazin-1-yl)pyridin-2-yl)-3-methylbutan-1-ol]
- MIC (A. fumigatus): 0.062 to 0.25 µg/mL (≈ 0.0916 to 0.369 µM)
- MIC (C. albicans (ATCC 90028)): 0.01 to 0.1 µg/mL (≈ 0.0148 to 0.148 µM)

Structure (SMILES): OC(CC(F)(F)F)c1ccc(N2CCN(c3ccc(-c4ccc(C(F)(F)[C@](O)(Cn5cnnn5)c5ccc(F)cc5)nc4)cc3)CC2)cn1 (single isomer, unassigned; (+)) [121(+)]
- Aspergillus fumigatus MIC (A. fumigatus): 0.25 to 1.0 µg/mL
- Candida albicans MIC (C. albicans (ATCC 90028)): ≤0.0078 to 0.010 µg/mL

Structure (SMILES): OC(c1ccc(N2CCN(c3ccc(-c4ccc(C(F)(F)[C@](O)(Cn5cnnn5)c5ccc(F)cc5F)nc4)cc3)CC2)s1)C(F)(F)F (stereo partly drawn) [Example 62, (2R)-2-(2,4-difluorophenyl)-1,1-difluoro-3-(1H-tetrazol-1-yl)-1-(5-(4-(4-(5-(2,2,2-trifluoro-1-hydroxyethyl)thiophen-2-yl)piperazin-1-yl)phenyl)pyridin-2-yl) propan-2-ol]
- MIC (A. fumigatus): 0.25 to 1 µg/mL (≈ 0.36 to 1.44 µM)
- MIC (C. albicans (ATCC 90028)): 0.0078 to 0.01 µg/mL (≈ 0.0112 to 0.0144 µM)

Structure (SMILES): O=c1[nH]ncn1-c1ccc(N2CCN(c3ccc(-c4ccc(C(F)(F)[C@](O)(Cn5cnnn5)c5ccc(F)cc5F)nc4)cc3)CC2)cc1 [Example 60, (R)-4-(4-(4-(4-(6-(2-(2,4-difluorophenyl)-1,1-difluoro-2-hydroxy-3-(1H-tetrazol-1-yl)propyl)pyridin-3-yl)phenyl)piperazin-1-yl)phenyl)-2,4-dihydro-3H-1,2,4-triazol-3-one]
- MIC (A. fumigatus): 0.25 to 1 µg/mL (≈ 0.372 to 1.49 µM)
- MIC (C. albicans (ATCC 90028)): 0.0078 to 0.01 µg/mL (≈ 0.0116 to 0.0149 µM)

Structure (SMILES): CC(C)(C)CC(O)c1ccc(N2CCN(c3ccc(-c4ccc(C(F)(F)[C@](O)(Cn5cnnn5)c5ccc(F)cc5F)nc4)cc3)CC2)cn1 (stereo partly drawn) [Example 118, 1-(5-(4-(4-(6-((R)-2-(2,4-difluorophenyl)-1,1-difluoro-2-hydroxy-3-(1H-tetrazol-1-yl)propyl)pyridin-3-yl)phenyl)piperazin-1-yl)pyridin-2-yl)-3,3-dimethylbutan-1-ol]
- MIC (A. fumigatus): 0.25 to 1 µg/mL (≈ 0.362 to 1.45 µM)
- MIC (C. albicans (ATCC 90028)): 0.0078 to 0.01 µg/mL (≈ 0.0113 to 0.0145 µM)

Structure (SMILES): Cn1c(N2CCN(c3ccc(-c4ccc(C(F)(F)[C@](O)(Cn5cnnn5)c5ccc(F)cc5F)nc4)cc3)CC2)nc2cc(C#N)ccc21 [Example 80, (R)-2-(4-(4-(6-(2-(2,4-difluorophenyl)-1,1-difluoro-2-hydroxy-3-(1H-tetrazol-1-yl)propyl)pyridin-3-yl)phenyl)piperazin-1-yl)-1-methyl-1H-benzo [d] imidazole-5-carbonitrile]
- MIC (A. fumigatus): > 8 µg/mL
- MIC (C. albicans (ATCC 90028)): 0.0078 to 0.01 µg/mL (≈ 0.0117 to 0.015 µM)

Structure (SMILES): CC(C)C(O)c1ccc(N2CCN(c3ccc(-c4ccc(C(F)(F)[C@](O)(Cn5cnnn5)c5ccc(F)cc5F)nc4)cc3)CC2)cc1 (stereo partly drawn) [Example 40, 1-(4-(4-(4-(6-((R)-2-(2,4-difluorophenyl)-1,1-difluoro-2-hydroxy-3-(1H-tetrazol-1-yl)propyl)pyridin-3-yl)phenyl)piperazin-1-yl)phenyl)-2-methylpropan-1-ol]
- MIC (A. fumigatus): 0.25 to 1 µg/mL (≈ 0.378 to 1.51 µM)
- MIC (C. albicans (ATCC 90028)): 0.0078 to 0.01 µg/mL (≈ 0.0118 to 0.0151 µM)

Structure (SMILES): CC[C@@H]([C@H](C)O)n1ncn(-c2ccc(N3CCN(c4ccc(-c5ccc(C(F)(F)[C@](O)(Cn6cnnn6)c6ccc(F)cc6F)nc5)cc4)CC3)cn2)c1=O [Example 82, 4-(5-(4-(4-(6-((R)-2-(2,4-difluorophenyl)-1,1-difluoro-2-hydroxy-3-(1H-tetrazol-1-yl)propyl)pyridin-3-yl)phenyl)piperazin-1-yl)pyridin-2-yl)-2-((2S,3S)-2-hydroxypentan-3-yl)-2,4-dihydro-3H-1,2,4-triazol-3-one]
- Aspergillus fumigatus MIC (A. fumigatus): 0.062 to 0.25 µg/mL
- Candida albicans MIC (C. albicans (ATCC 90028)): 0.010 to 0.10 µg/mL
